# Laboratory results from patent US10793553B2, “TLR7/8 antagonists and uses thereof” (Merck Patent GmbH, priority 2017, dated 2020).
# Counter-ions that a name gives are not always drawn.
# How the values were obtained:
# [1] = target: T1, TLR8 (Homo sapiens, UniProt Q9NR97); test: HEK TLR8 Cell Assay; type: cell-based; details: TLR8/NFKb HEK cells, R848 agonist 30 uM final, Steady-Glo readout
# T1 construct: expressed in transfected cells; host or cells: HEK cells carrying TLR8 and an NFkB luciferase reporter
# T1 sequence (Q9NR97 27-1041): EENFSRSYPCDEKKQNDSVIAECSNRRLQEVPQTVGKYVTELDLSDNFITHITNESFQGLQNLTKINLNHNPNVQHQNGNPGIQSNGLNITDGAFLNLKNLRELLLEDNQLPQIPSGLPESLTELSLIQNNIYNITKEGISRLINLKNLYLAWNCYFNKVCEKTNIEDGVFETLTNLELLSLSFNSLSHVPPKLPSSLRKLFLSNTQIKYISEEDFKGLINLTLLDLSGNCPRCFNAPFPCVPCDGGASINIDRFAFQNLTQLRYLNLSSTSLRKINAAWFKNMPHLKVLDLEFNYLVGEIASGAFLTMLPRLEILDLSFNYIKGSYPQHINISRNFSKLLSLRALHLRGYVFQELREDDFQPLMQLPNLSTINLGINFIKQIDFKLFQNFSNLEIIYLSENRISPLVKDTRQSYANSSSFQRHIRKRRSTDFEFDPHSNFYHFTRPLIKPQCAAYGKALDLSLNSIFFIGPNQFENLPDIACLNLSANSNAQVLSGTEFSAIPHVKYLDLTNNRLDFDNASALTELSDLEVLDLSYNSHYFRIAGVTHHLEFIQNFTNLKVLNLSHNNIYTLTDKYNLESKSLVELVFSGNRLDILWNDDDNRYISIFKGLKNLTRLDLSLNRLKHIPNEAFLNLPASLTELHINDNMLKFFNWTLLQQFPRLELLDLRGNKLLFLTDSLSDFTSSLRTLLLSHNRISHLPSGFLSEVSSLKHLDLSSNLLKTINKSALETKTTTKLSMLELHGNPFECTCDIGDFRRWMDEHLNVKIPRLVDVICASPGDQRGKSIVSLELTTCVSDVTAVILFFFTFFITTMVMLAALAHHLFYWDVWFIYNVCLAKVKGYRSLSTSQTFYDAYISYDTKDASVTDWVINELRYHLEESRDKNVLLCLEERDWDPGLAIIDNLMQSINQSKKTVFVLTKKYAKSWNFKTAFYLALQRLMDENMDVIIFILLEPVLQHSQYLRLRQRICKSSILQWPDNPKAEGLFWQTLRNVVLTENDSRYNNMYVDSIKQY
# Protocol: Example 25: HEK TLR8 Cell Assay
# (§1) Into 384 CulturePlates (Corning 3707) was placed 5000 c/w of TLR8/NFKb HEK cells in 30 uL DMEM without Phenol red (gibco #31053) and 10% FCS-HI, 2 mM L-Glutamine, 1% Pen/Strept. The cells are incubated for 24 h at 37 degrees Celsius, and 10% carbon dioxide. Dispense 3 uL of controls, standards, and compounds to wells, incubate for 30 min then add 3 uL of R848 (30 uM final concentration) agonist in 20 mM Hepes. Incubate for 5 hours and then allow to stand at room temperature for 15 min. Add 10 uL of Steady-Glo substrate reagent and shake assay plate for 5 min at 1500 rpm. Let the assay plate sit for 30 min at room temperature and then read plate on EnVision.
# [2] = target: T2, TLR7 (Homo sapiens, UniProt Q9NYK1); test: HEK TLR7 Cell Assay; type: cell-based; details: TLR7/NFKb HEK cells, R848 agonist 10 uM final, Steady-Glo readout
# T2 construct: expressed in transfected cells; host or cells: HEK cells carrying TLR7 and an NFkB luciferase reporter
# T2 sequence (Q9NYK1 27-1049): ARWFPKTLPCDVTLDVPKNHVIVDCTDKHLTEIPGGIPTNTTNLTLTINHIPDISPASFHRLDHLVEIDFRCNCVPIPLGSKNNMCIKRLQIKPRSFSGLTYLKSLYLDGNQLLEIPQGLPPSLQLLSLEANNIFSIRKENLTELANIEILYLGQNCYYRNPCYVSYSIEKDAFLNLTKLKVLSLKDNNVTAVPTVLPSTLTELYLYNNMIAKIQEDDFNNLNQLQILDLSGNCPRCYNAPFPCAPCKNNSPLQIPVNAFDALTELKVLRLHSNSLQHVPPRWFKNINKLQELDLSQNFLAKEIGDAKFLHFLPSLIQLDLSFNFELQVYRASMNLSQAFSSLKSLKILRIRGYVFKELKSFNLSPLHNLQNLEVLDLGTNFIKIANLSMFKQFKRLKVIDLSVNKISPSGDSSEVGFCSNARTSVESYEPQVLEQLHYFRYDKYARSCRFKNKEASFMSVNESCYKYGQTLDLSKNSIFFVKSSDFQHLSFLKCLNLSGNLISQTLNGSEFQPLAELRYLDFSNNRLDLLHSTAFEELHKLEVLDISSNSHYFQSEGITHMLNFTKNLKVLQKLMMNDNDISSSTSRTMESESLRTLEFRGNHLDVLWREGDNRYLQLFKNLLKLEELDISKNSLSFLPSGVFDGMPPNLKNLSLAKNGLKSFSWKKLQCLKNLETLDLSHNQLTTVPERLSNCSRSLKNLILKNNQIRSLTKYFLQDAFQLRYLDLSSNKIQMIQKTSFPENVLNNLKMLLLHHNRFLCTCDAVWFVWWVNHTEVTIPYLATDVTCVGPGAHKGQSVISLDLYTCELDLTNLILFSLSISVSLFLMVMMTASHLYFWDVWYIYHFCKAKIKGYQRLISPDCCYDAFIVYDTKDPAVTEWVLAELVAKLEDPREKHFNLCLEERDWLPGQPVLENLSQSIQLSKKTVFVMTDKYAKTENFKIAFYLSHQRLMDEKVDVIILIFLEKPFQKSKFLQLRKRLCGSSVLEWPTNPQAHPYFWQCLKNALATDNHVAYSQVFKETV
# Protocol: Example 24: HEK TLR7 Cell Assay
# as §1, with “TLR7/NFKb” for “TLR8/NFKb”, “(10” for “(30”
SMILES,IC50 [1] [µM],IC50 [2] [µM]
"C[C@@H]1CN(c2ccc(C(F)(F)F)c3ncccc23)C[C@@H]1NC(=O)CN1CCOCC1 [Compound 23, N-[(3R,4R)-4-methyl-1-[8-(trifluoromethyl)quinolin-5-yl]pyrrolidin-3-yl]-2-(morpholin-4-yl)acetamide]",> 10,1 to 10
"C[C@@H]1CN(c2ccc(C#N)c3nccnc23)C[C@@H]1NC(=O)CC1(F)CCNCC1 [Compound 9, N-[(3R,4R)-1-(8-cyanoquinoxalin-5-yl)-4-methylpyrrolidin-3-yl]-2-(4-fluoropiperidin-4-yl)acetamide]",< 1,< 1
"C[C@@H]1CN(c2ccc(C#N)c3nccnc23)C[C@@H]1NC(=O)CC1CCN(C)CC1 [Compound 2, N-[(3R,4R)-1-(8-cyanoquinoxalin-5-yl)-4-methylpyrrolidin-3-yl]-2-(1-methylpiperidin-4-yl)acetamide]",< 1,< 1
"C[C@@H]1CN(c2ccc(C(F)(F)F)c3ncccc23)C[C@@H]1NC(=O)CC1CCN(C)CC1(F)F (single isomer, unassigned) [Compound 28]",1 to 10,1 to 10
"C[C@@H]1CN(c2ccc(C#N)c3nccnc23)C[C@@H]1NC(=O)CC1(F)CCN(C)CC1 [Compound 10, N-[(3R,4R)-1-(8-cyanoquinoxalin-5-yl)-4-methylpyrrolidin-3-yl]-2-(4-fluoro-1-methylpiperidin-4-yl)acetamide]",< 1,< 1
"C[C@@H]1CN(c2ccc(C(F)(F)F)c3ncccc23)C[C@@H]1NC(=O)CC1(F)CCNCC1 [Compound 25, 2-(4-fluoropiperidin-4-yl)-N-[(3R,4R)-4-methyl-1-[8-(trifluoromethyl)quinolin-5-yl]pyrrolidin-3-yl]acetamide]",< 1,< 1
"C[C@@H]1CN(c2ccc(C#N)c3nccnc23)C[C@@H]1NC(=O)CC1CCN(C)C1 (single isomer, unassigned) [Compound 5]",< 1,< 1
"C[C@@H]1CN(c2ccc(C#N)c3nccnc23)C[C@@H]1NC(=O)CC1CCCN(C)C1 (single isomer, unassigned) [Compound 3]",< 1,< 1
"C[C@@H]1CN(c2ccc(C#N)c3nccnc23)C[C@@H]1NC(=O)C(O)C1CC1 (single isomer, unassigned) [Compound 13]",> 10,1 to 10
"C[C@@H]1CN(c2ccc(C(F)(F)F)c3ncccc23)C[C@@H]1NC(=O)C(O)C1CC1 (single isomer, unassigned) [Compound 29]",> 10,1 to 10
"C[C@@H]1CN(c2ccc(C#N)c3nccnc23)C[C@@H]1NC(=O)CN1CCOCC1 [Compound 7, N-[(3R,4R)-1-(8-cyanoquinoxalin-5-yl)-4-methylpyrrolidin-3-yl]-2-(morpholin-4-yl)acetamide]",1 to 10,1 to 10
"C[C@@H]1CN(c2ccc(C#N)c3nccnc23)C[C@@H]1NC(=O)CC1(C)CCN(C)CC1 [Compound 8, N-[(3R,4R)-1-(8-cyanoquinoxalin-5-yl)-4-methylpyrrolidin-3-yl]-2-(1,4-dimethylpiperidin-4-yl)acetamide]",< 1,< 1

# The next lines start with the values.
IC50 [1] [µM],IC50 [2] [µM],SMILES
> 10,> 10,"NC1CN(c2ccc(C(F)(F)F)c3ncccc23)CC1F (single isomer, unassigned) [Compound 49]"
1 to 10,< 1,"Cc1ccc(N2C[C@@H](C)[C@@H](NC(=O)CC3(F)CCNCC3)C2)c2cccnc12 [Compound 41, 2-(4-fluoropiperidin-4-yl)-N-[(3R,4R)-4-methyl-1-(8-methylquinolin-5-yl)pyrrolidin-3-yl]acetamide]"
1 to 10,< 1,"Cc1ccc(N2C[C@@H](C)[C@@H](NC(=O)CC3CCN(C)C3)C2)c2cccnc12 (single isomer, unassigned) [Compound 37]"
1 to 10,1 to 10,"Cc1ccc(N2C[C@@H](C)[C@@H](NC(=O)CC3CCCN(C)C3)C2)c2cccnc12 (single isomer, unassigned) [Compound 35]"
> 10,> 10,"Cc1ccc(N2C[C@@H](C)[C@@H](NC(=O)[C@H](O)C(C)C)C2)c2cccnc12 [Compound 48, (2R)-2-hydroxy-3-methyl-N-[(3R,4R)-4-methyl-1-(8-methylquinolin-5-yl)pyrrolidin-3-yl]butanamide]"
1 to 10,< 1,"Cc1ccc(N2C[C@@H](C)[C@@H](NC(=O)CC3CCCN(C)C3)C2)c2cccnc12 (single isomer, unassigned) [Compound 36]"
< 1,< 1,"Cc1ccc(N2C[C@@H](C)[C@@H](NC(=O)CC3(F)CCN(C)CC3)C2)c2cccnc12 [Compound 42, 2-(4-fluoro-1-methylpiperidin-4-yl)-N-[(3R,4R)-4-methyl-1-(8-methylquinolin-5-yl)pyrrolidin-3-yl]acetamide]"
1 to 10,< 1,"Cc1ccc(N2C[C@@H](C)[C@@H](NC(=O)CC3CCN(C)C3)C2)c2cccnc12 (single isomer, unassigned) [Compound 38]"
> 10,1 to 10,"Cc1ccc(N2C[C@@H](C)[C@@H](NC(=O)CN3CCOCC3)C2)c2cccnc12 [Compound 39, N-[(3R,4R)-4-methyl-1-(8-methylquinolin-5-yl)pyrrolidin-3-yl]-2-(morpholin-4-yl)acetamide]"
> 10,1 to 10,"Cc1ccc(N2C[C@@H](C)[C@@H](NC(=O)CC3CCN(C)CC3(F)F)C2)c2cccnc12 (single isomer, unassigned) [Compound 43]"
> 10,1 to 10,"Cc1ncc(N2C[C@@H](C)[C@@H](N)C2)c2cccnc12 [Compound 51, (3R,4R)-4-methyl-1-(8-methyl-[1,7]naphthyridin-5-yl)-pyrrolidin-3-ylamine hydrochloride]"
